# Like-named read-outs stand apart in the source and are kept apart here.
# Assays:
# [1] = Hydrocarbonylation of 2-pentenal with different ligands; ligand converted to phosphonium ion ligand degradation product by 31P-NMR (Example 4); type: physicochemical; conditions: ligand converted to phosphonium ion degradation product as percentage of total ligand; 3 hours, 70° C., 300 psig CO, 600 psig H2, 1570 ppm Rh, 4.6 mol ligand/mol Rh, 2-pentenal in 1-butanol
# Procedure: In a series of hydroformylation reactions (4A-D) 2-pentenal (50 mmols) was subjected to hydrocarbonylation conditions for 3 hours using a rhodium catalyst promoted with a variety of ligands having different cone angles and pKa's. Hydrocarbonylation conditions included: 70° C., 300 psig (2,068 kPa) carbon monoxide, 600 psig (4,136 kPa) hydrogen, 1570 ppm Rh, 4.6 mol ligand/mol Rh, and 40 wt % initial 2-pentenal in 1-butanol solvent. The source of Rh was Rh4(CO)12. During the course of the reaction 2-pentenal was hydrogenated to valeraldehyde and then to pentanol. After the reaction was completed, the reaction fluid was examined by P^31-NMR spectroscopy to determine the amount of ligand converted to phosphonium ion ligand degradation product, as a percentage of the total ligand in solution.
# [2] = Ligand basicity measured by pKa; type: physicochemical; conditions: est = estimated value
# Procedure: Basicity (electronic effect) measures the reactivity of a ligand towards a proton. Ligands with lower attraction to binding a proton are less basic, and therefore, generally of lower nucleophilicity. […] Generally, basicity is measured by pKa, known to those of skill in the art, as described in Organometallics, (1989) 8(1), 1, and by Wm. A. Henderson, Jr. and C. A. Streuli, Journal of the American Chemical Society, (1960), 82, 5791-5794, and by Tim Allman, et al., Canadian Journal of Chemistry (1982), 60(6), 716-722, all references incorporated herein by reference. Ligands having a pKa typically of less than about 8.3 provide for reduced formation of phosphonium ion ligand degradation products.
# [3] = cited from earlier work
# [4] = Batch hydrocarbonylation of 1,3-butadiene; phosphonium salts followed by 31P-NMR and ligand usage (Examples 1-3); type: physicochemical
# Procedure: A batch hydrocarbonylation of 1,3-butadiene (BD) to pentenols was conducted at the following conditions: 70° C., 300 psig (2,068 kPa) carbon monoxide, 600 psig (4,136 kPa) hydrogen, 1570 ppm Rh, 4.6 mol ligand/mol Rh, and 40 wt % initial BD in 1-butanol solvent. Trioctylphosphine was used as ligand, and the Rh source was Rh4(CO)12. Multiple samples were taken from the reactor and analyzed by phosphorus-31 nuclear magnetic resonance spectroscopy (^31P-NMR) to follow the concentration of phosphonium ion ligand degradation products (phosphonium salts) with time. The concentration of phosphonium salts increased between t=0 and t=60 min, and their concentration reached a maximum of 0.008 mol/L at t=60 min. […] The concentration of 2-pentenal (α,β-unsaturated aldehyde) also reached a maximum at 60 min.
# The BD conversion at the time when the concentrations of phosphonium salts and α,β-unsaturated aldehyde were at their maximum was 39%. Had the reaction been stopped at 39% conversion of BD, the ligand usage (lost) to phosphonium salts would have been 65 g/L/day. However, the reaction was continued until 480 minutes to allow for the 2-pentenal to react away under normal reaction conditions. […] The BD conversion at t=480 min was 98%. When the reaction was stopped at 98% BD conversion, the ligand usage (lost) to phosphonium salts was less than 1 g/L/day.
# A batch hydrocarbonylation of 1,3-butadiene (BD) was conducted to partial conversion followed by stripping of the reaction product solution with hydrogen to hydrogenate residual α,β-unsaturated aldehyde (2-pentenal). The batch hydrocarbonylation was conducted at the following conditions: 70° C., 300 psig (2,068 kPa) carbon monoxide, 600 psig (4,136 kPa) hydrogen, 1590 ppm Rh, 4.5 mol ligand/mol Rh, and 40 wt % initial BD in 1-butanol solvent. The ligand used was trioctylphosphine, and the Rh source was Rh4(CO)12. The reaction was conducted for 130 minutes and reached 67% conversion BD. At that time, the concentration of phosphonium salts and α,β-unsaturated aldehyde (2-pentenal) were both about 0.006 mol/L. If no attempt had been made to revert the phosphonium salts at this point, the ligand usage (lost) to phosphonium salts would have been 25 g/L/day. The reactor was vented down to atmospheric pressure to remove most of the syn-gas (CO+H2). The reactor was then re-pressurized back to 900 psig (6,205 kPa) with pure hydrogen. […] Hydrogen was continuously sparged through the reactor at a rate of 0.5 standard cubic feet per hour (SCFH) during the time when the reactor was at 120° C. and 900 psig (6,205 kPa). After 10 minutes of stripping with hydrogen, all phosphonium salts were undetectable by ^31P-NMR, and the α,β-unsaturated aldehyde was undetectable by gas chromatography. The concentration of both of these species remained at essentially “0” for the remainder of the experiment. The ligand usage (loss to phosphonium salts) was reduced from 25 g/L/day to less than 1 g/L/day by reverting the phosphonium salts by hydrogenating the residual α,β-unsaturated aldehyde with hydrogen.
# A batch hydrocarbonylation of 1,3-butadiene (BD) was conducted to partial conversion followed by stripping of the reaction product solution with nitrogen to remove residual α,β-unsaturated aldehyde (2-pentenal) by volatilization at […]. The batch hydrocarbonylation was conducted at the following conditions: 70° C., 300 psig (2,068 kPa) carbon monoxide, 600 psig (4,136 kPa) hydrogen, 1590 ppm Rh, 4.6 mol ligand/mol Rh, and 40 wt % initial BD in 1-butanol solvent. The ligand used was trioctylphosphine, and the Rh source was Rh4(CO)12. The reaction was conducted for 120 minutes and reached 72% conversion of BD. At that time, the concentration of phosphonium salts and α,β-unsaturated aldehyde were about 0.005 and 0.016 mol/L, respectively. If no attempt had been made to revert the phosphonium salts at this point, the ligand usage (lost) to phosphonium salts would have been about 20 g/L/day. […]
% Phosphonium Salt (by wt.) [1] [%],pKa [2],"ligand usage (lost) to phosphonium salts ([4]; Example 1, had the reaction been stopped at 39% conversion of BD) [g/L/day]","concentration of phosphonium salts ([4]; Example 1, maximum at t=60 min, 39% BD conversion, 70° C.) [mol/L]","ligand usage (lost) to phosphonium salts ([4]; Example 1, reaction stopped at 98% BD conversion)","concentration of phosphonium salts ([4]; Example 1, t=480 min, 98% BD conversion) [mol/L]","ligand usage (lost) to phosphonium salts ([4]; Example 2, 67% conversion BD, if no attempt made to revert) [g/L/day]","concentration of phosphonium salts ([4]; Example 2, 130 minutes, 67% conversion BD, before reversion)","phosphonium salts by 31P-NMR ([4]; Example 2, after 10 minutes of stripping with hydrogen, 120° C., 900 psig)","ligand usage (loss to phosphonium salts) ([4]; Example 2, after reversion with hydrogen)","ligand usage (lost) to phosphonium salts ([4]; Example 3, 72% conversion of BD, if no attempt made to revert)","concentration of phosphonium salts ([4]; Example 3, 120 minutes, 72% conversion of BD, before reversion)","concentration of phosphonium salts ([4]; Example 3, after 20 minutes of stripping with nitrogen, 120° C., 900 psig) [mol/L]","ligand usage (loss to phosphonium salts) ([4]; Example 3, after stripping with nitrogen) [g/L/day]",SMILES,PKa [3],PKa ([3]; listed as tri-isobutylphosphine)
9.8,~8.9,,,,,,,,,,,,,CCCCP(CCCC)C1CCCCC1 [Cyclohexyldi-n-butylphosphine],,
0.3,,,,,,,,,,,,,,CC(C)CP(CC(C)C)CC(C)C [Tri-isobutylphosphine],7.97,less than 8.3
,≥ 8.3,65,0.008,less than 1 g/L/day,0.0005,25,about 0.006 mol/L,undetectable,less than 1 g/L/day,about 20 g/L/day,about 0.005 mol/L,0.0005,2,CCCCCCCCP(CCCCCCCC)CCCCCCCC [tri-n-octylphosphine],,

# Reference: patent US7485759B2, “Minimization of ligand degradation products, or reversion of same to useful phosphine ligands” (Dow Technology Investments LLC, priority 2003, dated 2009)
